From patent publication US10183944B2 (Asana Biosciences, LLC, priority 2011, dated 2019)
Like-named read-outs stand apart in the source and are kept apart here.

Assays:
[1] = test system: Collagen Induced Arthritis (CIA) in female Lewis rats; assay: In vivo chronic study: Collagen Induced Arthritis (CIA); design: species or system rat; conditions: 0.5 mg/Kg
Description: Collagen Induced Arthritis (CIA) is a well characterized model of human rheumatoid arthritis (RA) that can be induced in susceptible animals following immunization with type II collagen (cII) in Freund's adjuvant. […] Pathophysiology of CIA consists of T cell component, as evidenced by increased infiltration of T-cells in joint synovium and also, by attenuation of CIA in T-cell deficient mice. CIA development involves B cell component too, as is evidenced by circulating cII antibody in disease animals and also, failure to develop the disease in xid mice/B cell deficient mice/CXCR5 null mice. […] See, Pine, “Inflammation and bone erosion are suppressed in models of rheumatoid arthritis following treatment with a novel Syk inhibitor”, Clin. Immunol., 2007, 124(3):244-57; Xiong cha, “Suppression of the onset and progression of collagen-induced arthritis in rats by QFGJS, a preparation from an anti-arthritic Chinese herbal formula”, J. Ethnopharmacology (2007) 110:39-48; and Stolina, “The evolving systemic and local biomarker milieu at different stages of disease progression in rat collagen induced arthritis”, Biomarkers (2008) 13(7-8):692-712, which are herein incorporated by reference.
Female Lewis rats (8 per group, 6-8 weeks old) were immunized on day 1 with type II collagen (Immunization grade Bovine type II; Chondrex; Cat #20021) emulsified with Complete Freund's Adjuvant (Sigma; Cat# F5881) at a final concentration of 1.2 mg/mL). For the initial immunization, the animals were injected at the base of the tail with 300 μg of the cII (0.25 mL/rat). A booster injection of the same type II collagen emulsified with Incomplete Freund's Adjuvant (Sigma, Cat #F5506) (0.25 mL/rat) was given to the animals on day 8 at the base of the tail (100 μg). The final cII concentration in the booster was […].
Animals with an arthritic score of ≥1 were grouped and dosing with test compound (30 mg/kg bid) or methotrexate (0.5 mg/kg) started between about day 12 to day 14, with daily dosing of their respective compounds continuing for 10 days.
Edema: Paw volumes are measured by Plethysmometry for the animals before induction of CIA (Basal readings) and on Day 1, 3, 6 and 9 of dosing period. Both hind paw volumes were measured and edema was calculated by subtracting from the basal mean.
Arthritic score: Animals were scored for the symptoms of arthritis every day starting from Day of onset of disease till the end of the study. Both the hind paws were scored and the total scores were averaged and compared with control. The scoring pattern was as follows:
The percent inhibition of Edema was calculated with respect to control by the formula: […]
The percent inhibition of Arthritic score was calculated with respect to control by the formula: […]
Means of different groups were compared with control using one way ANOVA followed by Dunnett's test. Significance is represented as follows.

[2] = molecular target: Syk (356-635 amino acids) catalytic domain (Homo sapiens (Human), UniProt P43405); assay: Inhibition of enzymatic Syk kinase activity (radiometric); assay type: biochemical; conditions: read-out: IC50 Syk
Procedure, shortened: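 Human Syk (356-635) kinase domain (0.035–7.5 ng/reaction) preincubated with compound 30 minutes at room temperature, then reacted with pG4T substrate, 100 μM ATP (stock) and γ-32P-ATP for 10 minutes at 30° C. Reaction stopped with HCl/ATP, spotted on P81 paper, washed and counted by scintillation. Percent inhibition versus no-compound counts.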

JAK2 = JAK2 (Homo sapiens (Human), UniProt O60674); assay: Inhibition of enzymatic JAK2 kinase activity (TR-FRET); assay type: biochemical; conditions: read-out: IC50 JAK
Procedure, shortened: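 Enzyme preincubated with compound 30 min at RT, then Ulight-poly-GT substrate and ATP added for 60 min at RT. EDTA stop, Eu-antiphosphotyrosine antibody; TR-FRET ratio 665/615 nm (ex 340 nm), blank-corrected; % inhibition versus positive control.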

RBL2H3 cells = assay: Degranulation assay: β-hexosaminidase release during immune complex mediated degranulation; assay type: cell-based, rat; conditions: Rattus norvegicus, RBL-2H3; for inhibition at 1 µM: read-out: Degranulation % inhibition at 1 μM; for EC50: read-out: Degranulation EC50
Procedure, shortened: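 RBL2H3 cells sensitized overnight (or 24 h) with anti-DNP rat IgE, pretreated 15 min with compounds in 0.5% DMSO, then challenged with DNP-BSA for 45–60 min. β-Hexosaminidase in supernatant read fluorometrically (Ex 355/Em 460 nm) with β-NAG substrate, 30 min RT; % release/inhibition calculated.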

[3] = Assay Protocol B (96 well format)

Chain of JAK2 (O60674 808-1132): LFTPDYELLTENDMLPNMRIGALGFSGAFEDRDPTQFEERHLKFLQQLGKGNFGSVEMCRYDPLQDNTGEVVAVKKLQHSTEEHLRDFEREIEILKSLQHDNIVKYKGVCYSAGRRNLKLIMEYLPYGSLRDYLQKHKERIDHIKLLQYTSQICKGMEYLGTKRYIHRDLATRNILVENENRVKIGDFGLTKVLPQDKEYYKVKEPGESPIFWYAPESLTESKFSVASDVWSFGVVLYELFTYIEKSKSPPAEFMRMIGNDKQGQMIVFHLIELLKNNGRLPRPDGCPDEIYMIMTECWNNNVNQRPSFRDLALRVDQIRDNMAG

Compound	Percent inhibition of Edema (Day 9 of dosing) ([1]; Day 9 of dosing)	Percent inhibition of Arthritic score (Day 10 of dosing) ([1]; Day 10 of dosing)	IC50 [2] [nM]	IC50 (JAK2) [nM]	inhibition at 1 µM (RBL2H3 cells; [3]) [%]	EC50 (RBL2H3 cells; [3]) [nM]	inhibition at 1 µM (RBL2H3 cells; Assay Protocol A (24 well format)) [%]
CN(Cc1cnc2nc(N)nc(N)c2n1)c1ccc(C(=O)N[C@@H](CCC(=O)O)C(=O)O)cc1 [Methotrexate, methotrexate, reference compound]	6	15	–	–	–	–	–
O=c1[nH]ncc2nc(N3CCCCCC3)nc(Nc3ccc4[nH]nnc4c3)c12 [Example 339, 4-((1H-benzo[d][1,2,3]triazol-5-yl)amino)-2-(azepan-1-yl)pyrimido[4,5-d]pyridazin-5(6H)-one]	–	–	< 10	< 50	83	31	–
N#CCC1CCN(c2nc(Nc3ccc(OCCN4CCC(CO)CC4)cc3)c3c(=O)[nH]ncc3n2)CC1 [Example 218, 2-(1-(4-((4-(2-(4-(hydroxymethyl)piperidin-1-yl)ethoxy)phenyl)amino)-5-oxo-5,6-dihydropyrimido[4,5-d]pyridazin-2-yl)piperidin-4-yl) acetonitrile]	–	–	< 50	< 50	33	123	–
N#CCC1CCN(c2nc(Nc3ccc(CCN4CCN(CCO)CC4)cc3)c3c(=O)[nH]ncc3n2)CC1 [Example 212, 2-(1-(4-((4-(2-(4-(2-hydroxyethyl)piperazin-1-yl)ethyl)phenyl)amino)-5-oxo-5,6-dihydropyrimido[4,5-d]pyridazin-2-yl)piperidin-4-yl)acetonitrile]	–	–	< 50	< 50	71	28	–
N#CCC1CCN(c2nc(Nc3ccc(N4CCC(CC(=O)O)CC4)nc3)c3c(=O)[nH]ncc3n2)CC1 [Example 116, 2-(1-(5-((2-(4-(cyanomethyl)piperidin-1-yl)-5-oxo-5,6-dihydropyrimido[4,5-d]pyridazin-4-yl)amino)pyridin-2-yl)piperidin-4-yl)acetic acid]	–	–	< 50	< 50	65	273	–
O=C(O)C1CC1C1CCN(c2ccc(Nc3nc(N4CCCCCC4)nc4cn[nH]c(=O)c34)cc2)CC1 (centres unmarked) [Example 131, 2-(1-(4-((2-(azepan-1-yl)-5-oxo-5,6-dihydropyrimido[4,5-d]pyridazin-4-yl)amino)phenyl)piperidin-4-yl) cyclopropanecarboxylic acid]	–	–	< 10	< 10	98	35	–
N#CCC1CCN(c2nc(Nc3ccc(N4CCC(CO)CC4)cc3)c3c(=O)[nH]ncc3n2)CC1 [Example 216, 2-(1-(4-((4-(4-(hydroxymethyl)piperidin-1-yl)phenyl)amino)-5-oxo-5,6-dihydropyrimido[4,5-d]pyridazin-2-yl)piperidin-4-yl)acetonitrile]	–	–	< 10	< 10	92	21	–
CC1CCN(c2nc(Nc3ccc(N4CCC5(CC4)CC5C(=O)O)cc3)c3c(=O)[nH]ncc3n2)CC1 (centres unmarked) [Example 155, 6-(4-((2-(4-methylpiperidin-1-yl)-5-oxo-5,6-dihydropyrimido[4,5-d]pyridazin-4-yl)amino)phenyl)-6-azaspiro[2.5]octane-1-carboxylic acid]	–	–	< 50	< 50	–	27	–
N#CCC1CCN(c2nc(Nc3ccc(N4CCC(CCC(=O)O)CC4)cc3)c3c(=O)[nH]ncc3n2)CC1 [Example 147, 3-(1-(4-((2-(4-(cyanomethyl)piperidin-1-yl)-5-oxo-5,6-dihydropyrimido[4,5-d]pyridazin-4-yl)amino)phenyl)piperidin-4-yl)propanoic acid]	–	–	< 10	< 50	49	152	–
O=c1[nH]ncc2nc(N3CCCCCC3)nc(Nc3ccc(N4CCNCC4)cc3)c12 [Example 192, 2-(azepan-1-yl)-4-((4-(piperazin-1-yl)phenyl)amino)pyrimido[4,5-d]pyridazin-5(6H)-one]	–	–	< 10	< 10	82	27	–
CC1(O)CCN(CCOc2ccc(Nc3nc(N4CCC(CC#N)CC4)nc4cn[nH]c(=O)c34)cc2)CC1 [Example 185, 2-(1-(4-((4-(2-(4-hydroxy-4-methylpiperidin-1-yl)ethoxy)phenyl)amino)-5-oxo-5,6-dihydropyrimido[4,5-d]pyridazin-2-yl)piperidin-4-yl)acetonitrile]	–	–	< 10	< 50	83	29	–
N#CCC1CCN(c2nc(Nc3ccc(N(CCO)CCO)cc3)c3c(=O)[nH]ncc3n2)CC1 [Example 307, 2-(1-(4-((4-(bis(2-hydroxyethyl)amino)phenyl)amino)-5-oxo-5,6-dihydropyrimido[4,5-d]pyridazin-2-yl)piperidin-4-yl)acetonitrile]	–	–	< 10	< 10	14	312	–
N#CCC1CCN(c2nc(Nc3ccc(N4CCCC(CO)C4)cc3)c3c(=O)[nH]ncc3n2)CC1 (centres unmarked) [Example 284, 2-(1-(4-((4-(3-(hydroxymethyl)piperidin-1-yl)phenyl)amino)-5-oxo-5,6-dihydropyrimido[4,5-d]pyridazin-2-yl)piperidin-4-yl)acetonitrile]	–	–	< 10	< 10	92	21	–
O=c1[nH]ncc2nc(-c3ccccc3)nc(Nc3ccc(N4CCNCC4)cc3)c12 [Example 8, 2-phenyl-4-(4-(piperazin-1-yl)phenylamino)pyrimido[4,5-d]pyridazin-5(6H)-one]	–	–	< 10	< 10	–	–	98
N#CCC1CCN(c2nc(Nc3ccc(N4CCN(CCCO)CC4)cc3)c3c(=O)[nH]ncc3n2)CC1 [Example 261, 2-(1-(4-((4-(4-(3-hydroxypropyl)piperazin-1-yl)phenyl)amino)-5-oxo-5,6-dihydropyrimido[4,5-d]pyridazin-2-yl)piperidin-4-yl)acetonitrile]	–	–	< 10	< 50	87	39	–
CN(C)CCN1CCN(c2ccc(Nc3nc(N4CCCCCC4)nc4cn[nH]c(=O)c34)cc2)CC1 [Example 267, 2-(azepan-1-yl)-4-((4-(4-(2-(dimethylamino)ethyl)piperazin-1-yl)phenyl)amino)pyrimido[4,5-d]pyridazin-5(6H)-one]	–	–	< 10	< 10	90	21	–
NC(=O)CC1CCN(c2ccc(Nc3nc(N4CCCCCC4)nc4cn[nH]c(=O)c34)cn2)CC1 [Example 99, 2-(1-(5-((2-(azepan-1-yl)-5-oxo-5,6-dihydropyrimido[4,5-d]pyridazin-4-yl)amino)pyridin-2-yl)piperidin-4-yl) acetamide]	–	–	< 10	< 50	94	44	–
O=c1[nH]ncc2nc(N3CCCCCC3)nc(Nc3ccc(N4CCC(Cc5nn[nH]n5)CC4)cc3)c12 [Example 244, 4-((4-(4-((2H-tetrazol-5-yl)methyl)piperidin-1-yl)phenyl)amino)-2-(azepan-1-yl)pyrimido[4,5-d]pyridazin-5(6H)-one]	–	–	< 10	< 10	23	306	–
